Experiments:
[1] = molecular target: T1, human clotting factor VIIa (Homo sapiens, UniProt P08709); test: Inhibitory activity against clotting factor VIIa (chromogenic substrate Spectrozyme FVIIa, with tissue factor); type: biochemical; details: 10 nmol/L TF, 5 nmol/L Factor VIIa, room temperature 40 minutes, 405 nm
T1 construct: a human clotting factor VIIa (Factor VIIa) purified sample; purchased Enzyme Research Laboratories (Factor VIIa); Calbiochem (tissue factor) HFVIIa (Factor VIIa); 612151 (tissue factor)
T1 sequence (P08709 213-466 limits assumed): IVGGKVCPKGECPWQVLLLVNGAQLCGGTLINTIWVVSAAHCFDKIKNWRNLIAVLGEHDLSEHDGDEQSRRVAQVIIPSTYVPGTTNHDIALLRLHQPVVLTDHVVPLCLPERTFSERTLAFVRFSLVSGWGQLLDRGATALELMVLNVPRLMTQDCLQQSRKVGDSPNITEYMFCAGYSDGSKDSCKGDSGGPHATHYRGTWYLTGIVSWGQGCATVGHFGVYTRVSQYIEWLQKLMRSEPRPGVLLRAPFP
T1 sequence (P08709 61-212 limits assumed): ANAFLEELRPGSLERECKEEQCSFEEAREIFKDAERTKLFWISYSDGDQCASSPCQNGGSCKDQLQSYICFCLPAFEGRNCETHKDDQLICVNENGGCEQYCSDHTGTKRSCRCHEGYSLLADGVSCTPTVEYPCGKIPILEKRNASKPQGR
T1 sequence (P13726 33-295 partner): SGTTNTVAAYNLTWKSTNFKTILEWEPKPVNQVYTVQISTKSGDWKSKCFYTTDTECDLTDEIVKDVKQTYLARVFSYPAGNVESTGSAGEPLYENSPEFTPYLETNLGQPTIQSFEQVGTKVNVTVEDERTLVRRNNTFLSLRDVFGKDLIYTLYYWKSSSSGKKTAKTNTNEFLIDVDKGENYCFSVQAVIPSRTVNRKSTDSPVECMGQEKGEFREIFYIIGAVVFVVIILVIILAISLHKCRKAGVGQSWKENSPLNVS
Description: Dimethylsulfoxide (DMSO) solutions were prepared with compounds of the invention at concentration of 10 mmol/L (10 mmol/L compound solutions).
One packet of tris-hydroxymethylaminomethane-preset (Tris Preset) (product of SIGMA Corp., Catalog No. T8293), 8.8 g of sodium chloride (NaCl) and 1 g of bovine serum albumin (BSA) were dissolved in 1 L of water to prepare a Tris-BSA buffer (100 mmol/L Tris, 0.15 mol/L NaCl, 0.1% BSA, pH 7.4).
The Tris-BSA buffer (180 μL) was added to the aforementioned 10 mmol/L compound solution (20 μL). A 10-fold dilution series was prepared for this mixture using the aforementioned Tris-BSA buffer, and solutions with the compound at concentrations of 1.0 mmol/L, 100, 10, 1, 0.1, 0.01 and 0.001 μmol/L were prepared (1.0 mmol-0.001 μmol/L compound solutions).
As a control, a solution was prepared by 10-fold dilution of DMSO with the Tris-BSA buffer (control 10% solution).
After dissolving one packet of Tris preset, NaCl (8.8 g) and BSA (1 g) in water (about 900 mL), there were added 1 mol/L aqueous calcium chloride (CaCl2) (15 mL) and 1 mg/mL aqueous cephalin (30 mL), and the total volume was brought to 1 L by adding water. To this solution was added a human tissue factor (TF) sample (product of Calbiochem, Catalog No. 612151) (450 μg) to a TF sample concentration of 10 nmol/L, and then a human clotting factor VIIa (Factor VIIa) purified sample (product of Enzyme Research Laboratories, Catalog No. HFVIIa) (250 μg) was added to a Factor VIIa purified sample concentration of 5 nmol/L, to prepare an enzyme solution (100 mmol/L Tris-HCl, 0.15 mol/L NaCl, 15 mmol/L CaCl2, 30 μg/mL cephalin, 1 mg/mL BSA, 10 nmol/L TF, 5 nmol/L Factor VIIa).
To 110 μL of this enzyme solution was added 15 μL of each of the 1.0 mmol-0.001 μmol/L compound solutions, and then 25 μL of a 1.0 mmol/L synthetic chromogenic substrate solution (Spectrozyme FVIIa) was added and the mixture was allowed to stand at room temperature for 40 minutes. Next, the amount of 4-nitroanilide released into the solution was quantitated by spectrophotometry (405 nm).
A control measurement was conducted in the same manner, using the control 10% solution instead of the compound solution.
This measurement yielded the enzyme reaction inhibition in the presence of 100 μmol/L to 0.1 nmol/L of each compound of the invention. The enzyme reaction inhibition at each compound concentration was subjected to non-linear regression analysis, and the IC50 value for inhibitory activity of each compound against clotting factor VIIa was calculated.

healthy human plasma = test: Blood clotting time prolongation (prothrombin time, steel ball method); details: human thromboplastin, 37° C.

IC50 [1] | Compound | h PT × 1.1: compound concentration which produced 10% prolongation compared to the control clotting time (healthy human plasma)
69 nM | CCOc1cc(C(Nc2ccc(C(=N)N)cc2)C(=O)NNC(=O)c2cnccc2C)ccc1OC(C)C.O=C(O)C(F)(F)F (stereo not drawn) [Example 27, 4-(1-(3-Ethoxy-4-isopropoxyphenyl)-2-(N′-(4-methylpyridine-3-carbonyl)hydrazino)-2-oxoethylamino)benzamidine trifluoroacetate] | 0.74 µM
166 nM | CCOc1cc(C(Nc2ccc(C(=N)N)cc2)C(=O)NNc2ccccc2C(=O)O)ccc1OC(C)CN(C)C.O=C(O)C(F)(F)F (stereo not drawn) [Example X-251, 2-(N′-(2-(4-Carbamimidoylphenylamino)-2-(4-(2-dimethylamino-1-methylethoxy)-3-ethoxyphenyl)acetyl)hydrazino)benzoic acid trifluoroacetate] | 0.68 µM
110 nM | CCOc1cc(C(Nc2ccc(C(=N)N)cc2)C(=O)NNC(=O)c2ccccc2[N+](=O)[O-])ccc1OC(C)C.O=C(O)C(F)(F)F (stereo not drawn) [Example 32, 4-(1-(3-Ethoxy-4-isopropoxyphenyl)-2-(N′-(2-nitrobenzoyl)hydrazino)-2-oxoethylamino)benzamidine trifluoroacetate] | 0.80 µM
259 nM | COc1cc(F)c(C(Nc2ccc(C(=N)N)cc2)C(=O)NNC(=O)c2ccccc2Br)cc1OC.O=C(O)C(F)(F)F (stereo not drawn) [Example 72, 4-(2-(N’-(2-Bromobenzoyl)hydrazino)-1-(2-fluoro-4,5-dimethoxyphenyl)-2-oxoethylamino)benzamidine trifluoroacetate] | 1.20 µM
51 nM | CCOc1cc(C(Nc2ccc(C(=N)N)cc2)C(=O)NNc2ccccc2C(=O)O)ccc1OC(C)C.O=C(O)C(F)(F)F (stereo not drawn) [Example 3, 2-(N′-(2-(4-Carbamimidoylphenylamino)-2-(3-ethoxy-4-isopropoxyphenyl)acetyl)hydrazino)benzoic acid trifluoroacetate] | 1.00 µM
57 nM | CCOc1cc(C(Nc2ccc(C(=N)N)cc2)C(=O)NNC(=O)c2ccncc2Cl)ccc1OC(C)C.O=C(O)C(F)(F)F (stereo not drawn) [Example 33, 4-(2-(N′-(3-Chloropyridine-4-carbonyl)hydrazino)-1-(3-ethoxy-4-isopropoxyphenyl)-2-oxoethylamino)benzamidine trifluoroacetate] | 1.10 µM
